Reference: ChEMBL document CHEMBL4834432, “Diverse Prenylated Bibenzyl Enantiomers from the Chinese Liverwort Radula apiculata and Their Cytotoxic Activities” (J Nat Prod, 2021)
Structures can show the parent of a compound that is named as a salt. Activity calls are given as the source filed them. The rule behind the calls is not given here.

Key:
PC-3 [1] = test: Cytotoxicity against human PC-3 cells assessed as cell viability inhibition for 48 hrs by MTT assay; type: functional, cell-based; settings: PC-3, 48 h
NCI-H1299 = test: Cytotoxicity against human […] cells assessed as cell viability inhibition for 48 hrs by MTT assay; type: functional, cell-based; settings: NCI-H1299, 48 h
A549 = test: Cytotoxicity against human A549 cells assessed as cell viability inhibition for 48 hrs by MTT assay; type: functional, cell-based; settings: A549, 48 h
MCF7 = test: Cytotoxicity against human MCF-7 cells assessed as cell viability inhibition for 48 hrs by MTT assay; type: functional, cell-based; settings: MCF7, 48 h
PC-3 [2] = test: Induction of apoptosis in human PC-3 cells assessed as late apoptotic cells at 4 uM incubated for 24 hrs by annexin V/propidium iodide based flow cytometry (reference value: 3.89%); type: functional
PC-3 [3] = test: Induction of apoptosis in human PC-3 cells assessed as necrotic cells at 2 uM incubated for 24 hrs by annexin V/propidium iodide based flow cytometry (reference value: 1.93%); type: functional
PC-3 [4] = test: Induction of apoptosis in human PC-3 cells assessed as granular apoptotic body formation at 2 uM incubated for 24 hrs by DAPI staining analysis; type: functional, cell-based
PC-3 [5] = test: Induction of apoptosis in human PC-3 cells assessed as mitochondrial membrane potential loss at 6 uM incubated for 24 hrs by JC1 staining based flow cytometric analysis (reference value: 100%); type: functional, cell-based
PC-3 [6] = test: Induction of apoptosis in human PC-3 cells assessed as late apoptotic cells at 6 uM incubated for 24 hrs by annexin V/propidium iodide based flow cytometry (reference value: 3.89%); type: functional
PC-3 [7] = test: Induction of apoptosis in human PC-3 cells assessed as increase in cleaved caspase-9 level at 2 to 6 uM incubated for 24 hrs by Western blot analysis; type: functional, cell-based; settings: dose 2-6 µM
PC-3 [8] = test: Induction of apoptosis in human PC-3 cells assessed as nuclear shrinkage at 2 uM incubated for 24 hrs by DAPI staining analysis; type: functional, cell-based
PC-3 [9] = test: Induction of apoptosis in human PC-3 cells assessed as early apoptotic cells at 2 uM incubated for 24 hrs by annexin V/propidium iodide based flow cytometry (reference value: 2.71%); type: functional
PC-3 [10] = test: Induction of apoptosis in human PC-3 cells assessed as early apoptotic cells at 4 uM incubated for 24 hrs by annexin V/propidium iodide based flow cytometry (reference value: 2.71%); type: functional
PC-3 [11] = test: Induction of apoptosis in human PC-3 cells assessed as mitochondrial membrane potential loss at 4 uM incubated for 24 hrs by JC1 staining based flow cytometric analysis (reference value: 100%); type: functional, cell-based
PC-3 [12] = test: Induction of apoptosis in human PC-3 cells assessed as mitochondrial membrane potential loss at 2 uM incubated for 24 hrs by JC1 staining based flow cytometric analysis (reference value: 100%); type: functional, cell-based
PC-3 [13] = test: Induction of apoptosis in human PC-3 cells assessed as increase in cleaved PARP level at 2 to 6 uM incubated for 24 hrs by Western blot analysis; type: functional, cell-based; settings: dose 2-6 µM
PC-3 [14] = test: Induction of apoptosis in human PC-3 cells assessed as early apoptotic cells at 6 uM incubated for 24 hrs by annexin V/propidium iodide based flow cytometry (reference value: 2.71%); type: functional
PC-3 [15] = test: Induction of apoptosis in human PC-3 cells assessed as necrotic cells at 4 uM incubated for 24 hrs by annexin V/propidium iodide based flow cytometry (reference value: 1.93%); type: functional
PC-3 [16] = test: Induction of apoptosis in human PC-3 cells assessed as increase in Bax protein level incubated for 24 hrs by Western blot analysis; type: functional, cell-based; settings: dose 2-6 µM
PC-3 [17] = test: Induction of apoptosis in human PC-3 cells assessed as necrotic cells at 6 uM incubated for 24 hrs by annexin V/propidium iodide based flow cytometry (reference value: 1.93%); type: functional
PC-3 [18] = test: Induction of apoptosis in human PC-3 cells assessed as late apoptotic cells at 2 uM incubated for 24 hrs by annexin V/propidium iodide based flow cytometry (reference value: 3.89%); type: functional

Structure (SMILES) | IC50 (PC-3 [1]) [µM] | IC50 (NCI-H1299) [µM] | IC50 (A549) [µM] | IC50 (MCF7) [µM] | also measured
CC1(C)Oc2cc(O)cc(CCc3ccccc3)c2C2=C1O[C@@H]1c3c(CCc4ccccc4)cc(O)cc3OC(C)(C)[C@H]21 | 3.2 | 6.2 | 3.6 | 4.5 | –
CC1(C)Oc2cc(O)cc(CCc3ccccc3)c2C2=C1O[C@H]1c3c(CCc4ccccc4)cc(O)cc3OC(C)(C)[C@@H]21 | > 10 | > 10 | > 10 | > 10 | –
CC1(C)C=Cc2c(CCc3ccccc3)cc(O)c(C3CC(C)(C)Oc4cc(O)cc(CCc5ccccc5)c43)c2O1 (racemic) | 8.2 | 8.2 | 6.5 | 5.7 | –
CC12CC(c3c(CCc4ccccc4)cc(O)cc3O1)C1C(C2)c2c(CCc3ccccc3)cc(O)cc2OC1(C)C (racemic) | 5.4 | 7.2 | 5.8 | 4.6 | –
CC1(C)Oc2cc(O)cc(CCc3ccccc3)c2C(C2=Cc3c(CCc4ccccc4)cc(O)cc3OC2(C)C)C1=O (racemic) | 4.1 | 6.4 | 4.5 | 4.9 | –
CC1(C)Oc2cc(O)cc(CCc3ccccc3)c2C2=C1OC1c3c(CCc4ccccc4)cc(O)cc3OC(C)(C)C21 (racemic) | 3.4 | 6.6 | 3.7 | 5 | Activity (PC-3 [2]): 7.81%; Activity (PC-3 [3]): 4.12%; Activity (PC-3 [4]): Active; Activity (PC-3 [5]): Active; Activity (PC-3 [6]): 60.74%; Activity (PC-3 [7]): Active; Activity (PC-3 [8]): Active; Activity (PC-3 [9]): 2.65%; Activity (PC-3 [10]): 1.4%; Activity (PC-3 [11]): Active; Activity (PC-3 [12]): Active; Activity (PC-3 [13]): Active; Activity (PC-3 [14]): 1.82%; Activity (PC-3 [15]): 2.55%; Activity (PC-3 [16]): Active; Activity (PC-3 [17]): 18.81%; Activity (PC-3 [18]): 5.68%
CC(C)=CCc1c(O)cc2c(c1CCc1ccccc1)C1(C(=O)O2)c2c(CCc3ccccc3)cc(O)cc2OC1(C)C (racemic) | 1.5 | 6.9 | 2.8 | 3.6 | –
CC1(C)C=Cc2c(cc3c(c2CCc2ccccc2)C2(C(=O)O3)c3c(CCc4ccccc4)cc(O)cc3OC2(C)C)O1 (racemic) | 1.4 | 5.8 | 2.6 | 5.4 | –
CC1(C)Oc2cc(O)cc(CCc3ccccc3)c2C2OC3c4c(CCc5ccccc5)cc(O)cc4OC(C)(C)C3C21 (racemic) | 3.5 | 6.7 | 3.1 | 5.8 | –
CC1=CC2c3c(CCc4ccccc4)cc(O)cc3OC(c3c(O)cc(O)cc3CCc3ccccc3)C2C(C)(C)C1 (racemic) | 8.2 | – | – | 9.8 | –
COc1cccc2c1C(=O)c1c(O)c3c(c(O)c1C2=O)C[C@@](O)(C(=O)CO)C[C@@H]3O[C@H]1C[C@H](N)[C@H](O)[C@H](C)O1 [DOXORUBICIN HYDROCHLORIDE] | 0.4 | 4.7 | 1.2 | – | –
